Data reported in paper PMC4666608, “Metabolic Profiling of Chicken Embryos Exposed to Perfluorooctanoic Acid (PFOA) and Agonists to Peroxisome Proliferator-Activated Receptors” (PLoS ONE, 2015).
Marks after values point to notes of the source that are not given here.

System: chicken embryos
Assay: Metabolic profiling of allantoic fluid (GC-MS, LC-MS, OPLS-DA)
Assay type: in vivo, Gallus gallus domesticus
Conditions: LC; for Mean concentration relative to control, feature 155.0353@0.6447272: suggested C3H10NO4P; for Mean concentration relative to control, feature 345.0497@1.1234403: suggested C10H12N5O7P; for Mean concentration relative to control, feature 337.0259@4.4213357: suggested C13H11N3O4S2; for Mean concentration relative to control, feature 344.1427@2.1164653: suggested C13H20N4O7; for Mean concentration relative to control, feature 331.184@6.373359: suggested C13H25N5O5; for Mean concentration relative to control, feature 361.2026@5.6644735: suggested C16H31N3O4S
Protocol: Controls were injected with 20 μL vehicle only (DMSO).
Plasma was collected and stored at -70°C.
Metabolites in allantoic fluid and blood plasma were analyzed using gas chromatography-mass spectrometry (GC-MS) and liquid chromatography-mass spectrometry (LC-MS) as described in S1 Methods. Prior to GC-MS and LC-MS analysis, allantoic fluid (100 μL) and blood plasma (50 μL) were extracted. To each sample, 900 μL (allantoic fluid) or 450 μL (blood plasma) of extraction buffer (90/10 v/v methanol:water) including all internal standards were added. Standards for GC-MS were proline, succinic acid, glutamic acid, salicylic acid, alpha-ketoglutarate, putrescine, myristic acid, hexadecanoic acid, cholesterol, and sucrose. Standards for LC-MS were Val-Tyr-Val, Leu-enkephalin, sulfadimethoxine and reserpine. Samples were homogenized by shaking in a bead mill at a frequency of 30 Hz for 3 minutes and proteins were precipitated at +4°C on ice. The samples were centrifuged at +4°C, 14000 rpm, for 10 min. Then, 200 μL supernatant was transferred to a GC microvial and 200 μL was transferred to an LC microvial, and solvents were evaporated. Samples from the four replicate experiments were analyzed using in chronological order and within each replicate experiment the run order of the individual samples was randomized.
Multivariate statistical analyses of metabolite profiles were performed using the software package SIMCA-P version 13.0 (Umetrics, Umeå, Sweden). Data was centered and scaled to variance 1 (UV scaling) prior to modelling. To reduce unintended systematic variation caused by sample processing and instrument drift, GC-MS and LC-MS metabolite amounts (expressed as the area under the chromatographic peak) were normalized by Orthogonal Partial Least Squares analysis (O2PLS) prior to multivariate data analysis. O2PLS finds common (predictive) and unique (orthogonal) variation in two data matrices. If applied to find the common variation between the data matrix containing the measured metabolite concentrations and a matrix containing only the internal standards, the only common (predictive) variation expected is due to the unintended systematic variation. By deleting the contribution of the predictive latent variables, that variation can be removed from the data. Models obtained after this normalization contain in general less latent variables, and this simplification helps when deciding on the number of latent variables to be used. Following normalization, GC-MS and LC-MS data were analyzed together. Initially, a global Principal Component Analysis (PCA) was performed to get an overview of groups and trends and to identify outliers. Projections to latent structures by means of Orthogonal Partial Least Squares Discriminant Analysis (OPLS-DA) was used to model the relationship between the X-matrix (metabolite concentrations) and the Y matrix (class, i.e. exposure group or sex), and to find x-variables that were related to class belonging. OPLS-DA is a supervised prediction and regression method that rotates the projection plane to find the maximum covariance between the data and the class assignment. All groups were first analyzed together in a 5-class OPLS-DA and then each exposure group was analyzed against the control group in a 2-class OPLS-DA. Sex differences were analyzed both using the whole data set and in each group separately using 2-class OPLS-DA, with females and males as the two classes. Only variables with 80% or more nonzero values were included in the statistical models. […] The validity of each model was also checked using CV-ANOVA (ANOVA of the cross-validated residuals). A significance level of p < 0.05 was used. For each model, R ^2 X, R ^2 Y and Q ^2 values were calculated, where R ^2 X is a measure of the fraction of x variation modeled in the extracted latent variables, R ^2 Y is a measure of the fraction of y variation modeled and Q ^2 is an estimate of the predictive ability of the model and is calculated by cross-validation. […]

O=C(O)C(F)(F)C(F)(F)C(F)(F)C(F)(F)C(F)(F)C(F)(F)C(F)(F)F [PFOA, perfluorooctanoic acid]
Mean concentration relative to control, feature 466.0837@2.1187525 (PFOA 50 μg/egg): 1.0
Mean concentration relative to control, feature 488.0753@4.419585 (PFOA 50 μg/egg): 1.0
Mean concentration relative to control, feature 498.1003@2.1184251 (PFOA 50 μg/egg): 1.0
Mean concentration relative to control, feature 507.1682@2.1238236 (PFOA 50 μg/egg): 1.0
Mean concentration relative to control, feature 580.1426@3.0726147 (PFOA 50 μg/egg): 1.0
Mean concentration relative to control, feature 582.1578@2.1747615 (PFOA 50 μg/egg): 1.0
Mean concentration relative to control, feature 588.1751@2.1182237 (PFOA 50 μg/egg): 1.0
Mean concentration relative to control, feature 594.1337@3.0724604 (PFOA 50 μg/egg): 1.0
Mean concentration relative to control, feature 604.1486@2.1174603 (PFOA 50 μg/egg): 1.0
Mean concentration relative to control, feature 623.183@2.1249466 (PFOA 50 μg/egg): 0.9
Mean concentration relative to control, feature 668.2625@6.4379454 (PFOA 50 μg/egg): 1.0
Mean concentration relative to control, feature 155.0353@0.6447272 (PFOA 50 μg/egg): 0.4*
Mean concentration relative to control, feature 345.0497@1.1234403 (PFOA 50 μg/egg): 1.1
Mean concentration relative to control, feature 337.0259@4.4213357 (PFOA 50 μg/egg): 1.0
Mean concentration relative to control, feature 344.1427@2.1164653 (PFOA 50 μg/egg): 1.0
Mean concentration relative to control, feature 331.184@6.373359 (PFOA 50 μg/egg): 0.9
Mean concentration relative to control, feature 361.2026@5.6644735 (PFOA 50 μg/egg): 0.8
Mean concentration relative to control, feature 134.0239@1.1350567 (PFOA 250 μg/egg): 0.9
Mean concentration relative to control, feature 145.0538@3.072527 (PFOA 250 μg/egg): 1.1
Mean concentration relative to control, feature 147.0328@3.0722888 (PFOA 250 μg/egg): 1.1
Mean concentration relative to control, feature 160.0323@1.1950632 (PFOA 250 μg/egg): 1.1
Mean concentration relative to control, feature 173.0488@3.0734746 (PFOA 250 μg/egg): 1.1
Mean concentration relative to control, feature 176.0952@1.3890611 (PFOA 250 μg/egg): 0.5*
Mean concentration relative to control, feature 178.0428@1.7582192 (PFOA 250 μg/egg): 1.0
Mean concentration relative to control, feature 180.0048@4.421465 (PFOA 250 μg/egg): 1.0
Mean concentration relative to control, feature 189.1159@1.9209185 (PFOA 250 μg/egg): 0.9
Mean concentration relative to control, feature 197.0639@2.1181405 (PFOA 250 μg/egg): 1.0
Mean concentration relative to control, feature 201.012@3.046474 (PFOA 250 μg/egg): 1.1
Mean concentration relative to control, feature 202.0429@2.9548414 (PFOA 250 μg/egg): 1.0
Mean concentration relative to control, feature 205.0533@4.421879 (PFOA 250 μg/egg): 1.0
Mean concentration relative to control, feature 214.016@2.1190732 (PFOA 250 μg/egg): 0.9
Mean concentration relative to control, feature 226.0107@4.421457 (PFOA 250 μg/egg): 1.0
Mean concentration relative to control, feature 236.0816@3.0720985 (PFOA 250 μg/egg): 1.1
Mean concentration relative to control, feature 241.0551@2.3510706 (PFOA 250 μg/egg): 1.0
Mean concentration relative to control, feature 243.1118@2.1537287 (PFOA 250 μg/egg): 1.0
Mean concentration relative to control, feature 244.9972@4.421603 (PFOA 250 μg/egg): 1.0
Mean concentration relative to control, feature 245.1563@2.2907295 (PFOA 250 μg/egg): 0.9
Mean concentration relative to control, feature 250.0981@3.072492 (PFOA 250 μg/egg): 1.1
Mean concentration relative to control, feature 262.0978@2.7961144 (PFOA 250 μg/egg): 1.1
Mean concentration relative to control, feature 263.0855@2.2847009 (PFOA 250 μg/egg): 1.0
Mean concentration relative to control, feature 270.0441@1.1407775 (PFOA 250 μg/egg): 1.0
Mean concentration relative to control, feature 278.0928@3.0723689 (PFOA 250 μg/egg): 1.1
Mean concentration relative to control, feature 279.1248@2.796395 (PFOA 250 μg/egg): 1.2
Mean concentration relative to control, feature 280.1425@2.730277 (PFOA 250 μg/egg): 1.0
Mean concentration relative to control, feature 288.1166@2.9551322 (PFOA 250 μg/egg): 1.2
Mean concentration relative to control, feature 289.1012@3.249983 (PFOA 250 μg/egg): 1.0
Mean concentration relative to control, feature 289.173@7.5030584 (PFOA 250 μg/egg): 1.2
Mean concentration relative to control, feature 294.1242@2.3692534 (PFOA 250 μg/egg): 1.0
Mean concentration relative to control, feature 302.0508@3.0722616 (PFOA 250 μg/egg): 1.1
Mean concentration relative to control, feature 305.1682@5.353517 (PFOA 250 μg/egg): 0.5***
Mean concentration relative to control, feature 305.1684@5.2955093 (PFOA 250 μg/egg): 0.7**
Mean concentration relative to control, feature 308.073@4.4211636 (PFOA 250 μg/egg): 1.0
Mean concentration relative to control, feature 310.1181@1.5090439 (PFOA 250 μg/egg): 1.0
Mean concentration relative to control, feature 316.0389@3.0725708 (PFOA 250 μg/egg): 1.1
Mean concentration relative to control, feature 320.0626@3.0729218 (PFOA 250 μg/egg): 1.1
Mean concentration relative to control, feature 325.1114@2.1190624 (PFOA 250 μg/egg): 1.1
Mean concentration relative to control, feature 325.1115@2.3554378 (PFOA 250 μg/egg): 1.1
Mean concentration relative to control, feature 333.1335@2.8639288 (PFOA 250 μg/egg): 0.9
Mean concentration relative to control, feature 333.2005@6.5291867 (PFOA 250 μg/egg): 0.8*
Mean concentration relative to control, feature 335.1866@4.508565 (PFOA 250 μg/egg): 0.9
Mean concentration relative to control, feature 337.1651@1.8737898 (PFOA 250 μg/egg): 0.9
Mean concentration relative to control, feature 344.1424@2.348947 (PFOA 250 μg/egg): 1.0
Mean concentration relative to control, feature 348.0553@3.0730357 (PFOA 250 μg/egg): 1.1
Mean concentration relative to control, feature 349.1651@2.4087605 (PFOA 250 μg/egg): 0.9
Mean concentration relative to control, feature 357.1997@6.9691257 (PFOA 250 μg/egg): 0.9
Mean concentration relative to control, feature 371.1513@3.0009465 (PFOA 250 μg/egg): 1.2
Mean concentration relative to control, feature 375.1819@3.672254 (PFOA 250 μg/egg): 0.9
Mean concentration relative to control, feature 394.167@3.9552917 (PFOA 250 μg/egg): 1.0
Mean concentration relative to control, feature 414.1482@2.118972 (PFOA 250 μg/egg): 1.1
Mean concentration relative to control, feature 466.0837@2.1187525 (PFOA 250 μg/egg): 1.1
Mean concentration relative to control, feature 488.0753@4.419585 (PFOA 250 μg/egg): 1.0
Mean concentration relative to control, feature 498.1003@2.1184251 (PFOA 250 μg/egg): 1.0
Mean concentration relative to control, feature 507.1682@2.1238236 (PFOA 250 μg/egg): 1.0
Mean concentration relative to control, feature 580.1426@3.0726147 (PFOA 250 μg/egg): 1.2
Mean concentration relative to control, feature 582.1578@2.1747615 (PFOA 250 μg/egg): 1.2
Mean concentration relative to control, feature 588.1751@2.1182237 (PFOA 250 μg/egg): 1.1
Mean concentration relative to control, feature 594.1337@3.0724604 (PFOA 250 μg/egg): 1.2
Mean concentration relative to control, feature 604.1486@2.1174603 (PFOA 250 μg/egg): 1.0
Mean concentration relative to control, feature 623.183@2.1249466 (PFOA 250 μg/egg): 1.1
Mean concentration relative to control, feature 668.2625@6.4379454 (PFOA 250 μg/egg): 1.0
Mean concentration relative to control, feature 155.0353@0.6447272 (PFOA 250 μg/egg): 0.3*
Mean concentration relative to control, feature 345.0497@1.1234403 (PFOA 250 μg/egg): 1.1
Mean concentration relative to control, feature 337.0259@4.4213357 (PFOA 250 μg/egg): 1.0
Mean concentration relative to control, feature 344.1427@2.1164653 (PFOA 250 μg/egg): 1.0
Mean concentration relative to control, feature 331.184@6.373359 (PFOA 250 μg/egg): 0.7**
Mean concentration relative to control, feature 361.2026@5.6644735 (PFOA 250 μg/egg): 0.9
